Assay results taken from the supplement of paper PMC10307832.

Experiments:
Assay in all cases: relative viability (nuclei count vs DMSO), 5 days (fraction); higher = more cells survive
SK-MES-1 = system: SK-MES-1
Procedure, shortened: (§1)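 A single step with final 0.05% Triton X-100, 1% formaldehyde and 1 ug/ml Hoechst fixed the cells and stained nuclei 5 days after treatment. Lung cancer cell lines in 1536-well plates had been treated by pin tool the day after seeding with one drug alone or a fixed anchor-drug dose plus five library-drug doses (not always all listed) in √10 steps, and nuclei were counted on 4× images. Relative viability is the ratio of nuclei in treated wells to nuclei in vehicle wells, taken as the median of duplicate plates.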

H3255 = system: H3255
Procedure, shortened: as §1

COR-L23 = system: COR-L23
Procedure, shortened: as §1

HCC-44 = system: HCC-44
Procedure, shortened: as §1

NCI-H1563 = system: NCI-H1563
Procedure, shortened: as §1

NCI-H2087 = system: NCI-H2087
Procedure, shortened: as §1

NCI-H1651 = system: NCI-H1651
Procedure, shortened: as §1

LU99A = system: LU99A
Procedure, shortened: as §1

EMC-BAC-2 = system: EMC-BAC-2
Procedure, shortened: as §1

NCI-H838 = system: NCI-H838
Procedure, shortened: as §1

NCI-H2085 = system: NCI-H2085
Procedure, shortened: as §1

NCI-H650 = system: NCI-H650
Procedure, shortened: as §1

HCC-827 = system: HCC-827
Procedure, shortened: as §1

ChaGo-K-1 = system: ChaGo-K-1
Procedure, shortened: as §1

NCI-H1944 = system: NCI-H1944
Procedure, shortened: as §1

EPLC-272H = system: EPLC-272H
Procedure, shortened: as §1

NCI-H2405 = system: NCI-H2405
Procedure, shortened: as §1

NCI-H2023 = system: NCI-H2023
Procedure, shortened: as §1

NCI-H520 = system: NCI-H520
Procedure, shortened: as §1

NCI-H1793 = system: NCI-H1793
Procedure, shortened: as §1

NCI-H1395 = system: NCI-H1395
Procedure, shortened: as §1

LCLC-103H = system: LCLC-103H
Procedure, shortened: as §1

For CCN(CC)CCCCNc1ncc2cc(-c3cc(OC)cc(OC)c3)c(NC(=O)NC(C)(C)C)nc2n1 + COc1cccc2cc(-c3nc([C@H]4CC[C@H](C(=O)O)CC4)n4ncnc(N)c34)[nH]c12 [OSI-027] (partner 0.5 µM), the relative viability (SK-MES-1; first compound 0.01 µM) was 0.627, the relative viability (SK-MES-1; first compound 0.03162 µM) was 0.654 and the relative viability (SK-MES-1; first compound 0.1 µM) was 0.58. The relative viability (SK-MES-1; first compound 0.3162 µM) was 0.81, the relative viability (SK-MES-1; first compound 1 µM) was 0.521 and the relative viability (H3255; first compound 0.01 µM) was 0.524. For the same compound, the relative viability (H3255; first compound 0.03162 µM) was 0.547, the relative viability (H3255; first compound 0.1 µM) was 0.698 and the relative viability (H3255; first compound 0.3162 µM) was 0.448. It also gave a relative viability (H3255; first compound 1 µM) of 0.538, a relative viability (COR-L23; first compound 0.01 µM) of 1.19 and a relative viability (COR-L23; first compound 0.03162 µM) of 0.873. The relative viability (COR-L23; first compound 0.1 µM) was 1.06, the relative viability (COR-L23; first compound 0.3162 µM) was 1.07 and the relative viability (COR-L23; first compound 1 µM) was 0.503. It also gave a relative viability (HCC-44; first compound 0.01 µM) of 0.436, a relative viability (HCC-44; first compound 0.03162 µM) of 0.587 and a relative viability (HCC-44; first compound 0.1 µM) of 0.573. It also gave a relative viability (HCC-44; first compound 0.3162 µM) of 0.519, a relative viability (HCC-44; first compound 1 µM) of 0.479 and a relative viability (NCI-H1563; first compound 0.01 µM) of 0.766. For the same compound, the relative viability (NCI-H1563; first compound 0.03162 µM) was 0.723, the relative viability (NCI-H1563; first compound 0.1 µM) was 0.835 and the relative viability (NCI-H1563; first compound 0.3162 µM) was 0.768. It also gave a relative viability (NCI-H1563; first compound 1 µM) of 0.584, a relative viability (NCI-H2087; first compound 0.01 µM) of 0.618 and a relative viability (NCI-H2087; first compound 0.03162 µM) of 0.5. The relative viability (NCI-H2087; first compound 0.1 µM) was 0.733, the relative viability (NCI-H2087; first compound 0.3162 µM) was 0.636 and the relative viability (NCI-H2087; first compound 1 µM) was 0.6. It also gave a relative viability (NCI-H1651; first compound 0.01 µM) of 0.7, a relative viability (NCI-H1651; first compound 0.03162 µM) of 0.737 and a relative viability (NCI-H1651; first compound 0.1 µM) of 0.782. It also gave a relative viability (NCI-H1651; first compound 0.3162 µM) of 0.79, a relative viability (NCI-H1651; first compound 1 µM) of 0.695 and a relative viability (LU99A; first compound 0.01 µM) of 0.292. The relative viability (LU99A; first compound 0.03162 µM) was 0.259, the relative viability (LU99A; first compound 0.1 µM) was 0.309 and the relative viability (LU99A; first compound 0.3162 µM) was 0.291. The relative viability (LU99A; first compound 1 µM) was 0.302, the relative viability (EMC-BAC-2; first compound 0.01 µM) was 0.38 and the relative viability (EMC-BAC-2; first compound 0.03162 µM) was 0.399. The relative viability (EMC-BAC-2; first compound 0.1 µM) was 0.398, the relative viability (EMC-BAC-2; first compound 0.3162 µM) was 0.471 and the relative viability (EMC-BAC-2; first compound 1 µM) was 0.358. For the same compound, the relative viability (NCI-H838; first compound 0.01 µM) was 0.373, the relative viability (NCI-H838; first compound 0.03162 µM) was 0.39 and the relative viability (NCI-H838; first compound 0.1 µM) was 0.449. For the same compound, the relative viability (NCI-H838; first compound 0.3162 µM) was 0.377, the relative viability (NCI-H838; first compound 1 µM) was 0.273 and the relative viability (NCI-H2085; first compound 0.01 µM) was 0.71. For the same compound, the relative viability (NCI-H2085; first compound 0.03162 µM) was 0.759, the relative viability (NCI-H2085; first compound 0.1 µM) was 0.867 and the relative viability (NCI-H2085; first compound 0.3162 µM) was 0.803. The relative viability (NCI-H2085; first compound 1 µM) was 0.725, the relative viability (NCI-H650; first compound 0.01 µM) was 0.46 and the relative viability (NCI-H650; first compound 0.03162 µM) was 0.551. The relative viability (NCI-H650; first compound 0.1 µM) was 0.589, the relative viability (NCI-H650; first compound 0.3162 µM) was 0.605 and the relative viability (NCI-H650; first compound 1 µM) was 0.507. The relative viability (HCC-827; first compound 0.01 µM) was 0.809, the relative viability (HCC-827; first compound 0.03162 µM) was 0.761 and the relative viability (HCC-827; first compound 0.1 µM) was 0.836. It also gave a relative viability (HCC-827; first compound 0.3162 µM) of 0.95, a relative viability (HCC-827; first compound 1 µM) of 0.655 and a relative viability (ChaGo-K-1; first compound 0.01 µM) of 0.618. The relative viability (ChaGo-K-1; first compound 0.03162 µM) was 0.671, the relative viability (ChaGo-K-1; first compound 0.1 µM) was 0.619 and the relative viability (ChaGo-K-1; first compound 0.3162 µM) was 0.559. It also gave a relative viability (ChaGo-K-1; first compound 1 µM) of 0.513, a relative viability (NCI-H1944; first compound 0.01 µM) of 0.417 and a relative viability (NCI-H1944; first compound 0.03162 µM) of 0.449. It also gave a relative viability (NCI-H1944; first compound 0.1 µM) of 0.437, a relative viability (NCI-H1944; first compound 0.3162 µM) of 0.406 and a relative viability (NCI-H1944; first compound 1 µM) of 0.351. It also gave a relative viability (EPLC-272H; first compound 0.01 µM) of 0.272, a relative viability (EPLC-272H; first compound 0.03162 µM) of 0.281 and a relative viability (EPLC-272H; first compound 0.1 µM) of 0.234. It also gave a relative viability (EPLC-272H; first compound 0.3162 µM) of 0.28, a relative viability (EPLC-272H; first compound 1 µM) of 0.301 and a relative viability (NCI-H2405; first compound 0.01 µM) of 0.647. The relative viability (NCI-H2405; first compound 0.03162 µM) was 0.659, the relative viability (NCI-H2405; first compound 0.1 µM) was 0.585 and the relative viability (NCI-H2405; first compound 0.3162 µM) was 0.602. For the same compound, the relative viability (NCI-H2405; first compound 1 µM) was 0.691, the relative viability (NCI-H2023; first compound 0.01 µM) was 0.426 and the relative viability (NCI-H2023; first compound 0.03162 µM) was 0.452. The relative viability (NCI-H2023; first compound 0.1 µM) was 0.518, the relative viability (NCI-H2023; first compound 0.3162 µM) was 0.486 and the relative viability (NCI-H2023; first compound 1 µM) was 0.359. The relative viability (NCI-H520; first compound 0.01 µM) was 0.251, the relative viability (NCI-H520; first compound 0.03162 µM) was 0.228 and the relative viability (NCI-H520; first compound 0.1 µM) was 0.259. For the same compound, the relative viability (NCI-H520; first compound 0.3162 µM) was 0.192, the relative viability (NCI-H520; first compound 1 µM) was 0.155 and the relative viability (NCI-H1793; first compound 0.01 µM) was 0.238. For the same compound, the relative viability (NCI-H1793; first compound 0.03162 µM) was 0.253, the relative viability (NCI-H1793; first compound 0.1 µM) was 0.318 and the relative viability (NCI-H1793; first compound 0.3162 µM) was 0.307. The relative viability (NCI-H1793; first compound 1 µM) was 0.206, the relative viability (NCI-H1395; first compound 0.01 µM) was 0.578 and the relative viability (NCI-H1395; first compound 0.03162 µM) was 0.697. It also gave a relative viability (NCI-H1395; first compound 0.1 µM) of 0.745, a relative viability (NCI-H1395; first compound 0.3162 µM) of 0.554 and a relative viability (NCI-H1395; first compound 1 µM) of 0.458. It also gave a relative viability (LCLC-103H; first compound 0.01 µM) of 0.455, a relative viability (LCLC-103H; first compound 0.03162 µM) of 0.482 and a relative viability (LCLC-103H; first compound 0.1 µM) of 0.456. It also gave a relative viability (LCLC-103H; first compound 0.3162 µM) of 0.386 and a relative viability (LCLC-103H; first compound 1 µM) of 0.339.
